Values after ≈ are worked out from the molar mass of the structure shown.
Columns and labels:
[1] = molecular target: T1, LIM domain kinase 1 (Homo sapiens, UniProt P53667); assay: Inhibition of LIMK1 (unknown origin) assessed as ADP formation using cofilin-2 protein as substrate measured after 60 mins incubation with enzyme by Transcreener assay
[2] = Solubility of the compound in phosphate buffer at pH 6.5 by nephelometry; format: physicochemical
[3] = Solubility of the compound in 0.01 M HCl at pH 2 by nephelometry; format: physicochemical
[4] = Partition coefficient, log D of the compound at pH 7.4 by HPLC analysis; format: physicochemical; details: octanol/water
[5] = In vitro intrinsic clearance in mouse liver microsomes at 1 uM by LC-MS analysis; format: ADME; details: read-out: CLH
[6] = In vitro intrinsic clearance in human liver microsomes at 1 uM by LC-MS analysis; format: ADME; details: read-out: CLH
[7] = Plasma protein binding in human by LC-MS analysis; format: ADME, cell-free; details: read-out: PPB (converted)
[8] = molecular target: T1, LIM domain kinase 1; assay: Inhibition of LIMK1-catalyzed cofilin phosphorylation in human ZR-75-1 cells; format: cell-based
[9] = molecular target: LIM domain kinase 2 (Homo sapiens, UniProt P53671); assay: Inhibition of LIMK2 (unknown origin)
[10] = molecular target: CYP3A4 (Homo sapiens, UniProt P08684); assay: Inhibition of CYP3A4 in human liver microsomes assessed as reduction in apparent rate of formation of metabolites using midazolam or testosterone as substrate at 20 uM by LC-MS analysis; format: ADME; details: probe midazolam or testosterone
[11] = molecular target: T2, CYP1A2 (Homo sapiens, UniProt P05177); assay: Inhibition of CYP1A2 in human liver microsomes assessed as reduction in apparent rate of formation of metabolites using phenacetin as substrate at 20 uM by LC-MS analysis; format: ADME; details: probe phenacetin
T2 sequence (P05177 whole entry): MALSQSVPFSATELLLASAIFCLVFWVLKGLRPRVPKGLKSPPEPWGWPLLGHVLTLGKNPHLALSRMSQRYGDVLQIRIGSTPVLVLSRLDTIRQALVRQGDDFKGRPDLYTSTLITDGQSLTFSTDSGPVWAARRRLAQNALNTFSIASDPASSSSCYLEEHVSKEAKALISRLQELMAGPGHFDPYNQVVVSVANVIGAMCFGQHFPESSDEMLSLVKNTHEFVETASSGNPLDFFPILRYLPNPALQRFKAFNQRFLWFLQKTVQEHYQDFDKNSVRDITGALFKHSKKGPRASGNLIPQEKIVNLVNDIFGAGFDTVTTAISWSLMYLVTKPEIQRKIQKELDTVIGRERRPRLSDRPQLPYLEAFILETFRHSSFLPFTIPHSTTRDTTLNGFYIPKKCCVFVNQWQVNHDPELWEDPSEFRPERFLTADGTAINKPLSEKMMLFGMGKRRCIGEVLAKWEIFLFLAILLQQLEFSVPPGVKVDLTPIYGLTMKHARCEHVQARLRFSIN

[12] = molecular target: hERG (KCNH2) (Homo sapiens, UniProt Q12809); assay: Inhibition of human ERG at 10 uM by fluorescence polarization assay
[13] = molecular target: Tyrosine-protein kinase JAK1 (Homo sapiens) (UniProt P23458); assay: Inhibition of JAK1 (unknown origin) at 1 uM
[14] = molecular target: Tyrosine-protein kinase JAK2 (Homo sapiens) (UniProt O60674); assay: Inhibition of JAK2 (unknown origin) at 1 uM
[15] = molecular target: T3, Tyrosine-protein kinase JAK3 (Homo sapiens) (UniProt P52333); assay: Inhibition of JAK3 (unknown origin) at 1 uM
T3 sequence (whole entry): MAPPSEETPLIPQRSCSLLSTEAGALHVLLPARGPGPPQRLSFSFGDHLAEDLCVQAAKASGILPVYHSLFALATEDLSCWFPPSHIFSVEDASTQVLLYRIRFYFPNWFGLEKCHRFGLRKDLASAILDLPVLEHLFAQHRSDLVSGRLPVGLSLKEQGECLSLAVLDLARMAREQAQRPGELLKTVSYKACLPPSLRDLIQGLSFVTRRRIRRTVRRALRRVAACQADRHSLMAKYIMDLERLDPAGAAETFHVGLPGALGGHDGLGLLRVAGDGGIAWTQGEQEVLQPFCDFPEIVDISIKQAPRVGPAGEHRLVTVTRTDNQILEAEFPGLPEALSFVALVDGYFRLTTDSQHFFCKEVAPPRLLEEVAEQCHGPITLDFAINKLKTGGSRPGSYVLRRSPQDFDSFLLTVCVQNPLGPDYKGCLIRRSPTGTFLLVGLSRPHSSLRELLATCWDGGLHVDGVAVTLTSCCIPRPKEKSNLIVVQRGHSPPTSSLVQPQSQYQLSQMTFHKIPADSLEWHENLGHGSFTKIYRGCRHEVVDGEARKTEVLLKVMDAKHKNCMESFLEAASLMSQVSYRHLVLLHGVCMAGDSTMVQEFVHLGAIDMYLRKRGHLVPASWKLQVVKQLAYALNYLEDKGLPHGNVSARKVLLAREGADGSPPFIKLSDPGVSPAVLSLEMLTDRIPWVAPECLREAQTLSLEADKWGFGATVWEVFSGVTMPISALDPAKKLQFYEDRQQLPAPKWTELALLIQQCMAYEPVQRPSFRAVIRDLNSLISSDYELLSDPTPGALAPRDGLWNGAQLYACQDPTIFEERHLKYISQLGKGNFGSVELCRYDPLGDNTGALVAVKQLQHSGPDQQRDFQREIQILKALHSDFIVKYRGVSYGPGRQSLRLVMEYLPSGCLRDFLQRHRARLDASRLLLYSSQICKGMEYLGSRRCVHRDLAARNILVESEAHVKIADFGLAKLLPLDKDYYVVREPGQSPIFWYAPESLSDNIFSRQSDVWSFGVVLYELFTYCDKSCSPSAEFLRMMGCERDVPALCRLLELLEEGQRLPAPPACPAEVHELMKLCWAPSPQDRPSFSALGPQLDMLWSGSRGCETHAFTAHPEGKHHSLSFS

[16] = molecular target: Tyrosine-protein kinase Lck (Homo sapiens) (UniProt P06239); assay: Inhibition of Lck (unknown origin) at 1 uM
[17] = molecular target: Proto-oncogene tyrosine-protein kinase Src (Homo sapiens) (UniProt P12931); assay: Inhibition of Src (unknown origin) at 1 uM
[18] = molecular target: Serine/threonine-protein kinase PAK 4 (Homo sapiens) (UniProt O96013); assay: Inhibition of PAK4 (unknown origin) at 1 uM
[19] = molecular target: Serine/threonine-protein kinase PAK 1 (Homo sapiens) (UniProt Q13153); assay: Inhibition of PAK1 (unknown origin) at 1 uM
[20] = molecular target: Rho-associated protein kinase 2 (Homo sapiens) (UniProt O75116); assay: Inhibition of ROCK2 (unknown origin) at 1 uM
[21] = test system: CYP2D6 (Homo sapiens); assay: Inhibition of CYP2D6 in human liver microsomes assessed as reduction in apparent rate of formation of metabolites using dextromethorphan as substrate at 20 uM by LC-MS analysis; details: probe dextromethorphan

Chain of Serine/threonine-protein kinase PAK 1 (Homo sapiens) (Q13153 whole entry): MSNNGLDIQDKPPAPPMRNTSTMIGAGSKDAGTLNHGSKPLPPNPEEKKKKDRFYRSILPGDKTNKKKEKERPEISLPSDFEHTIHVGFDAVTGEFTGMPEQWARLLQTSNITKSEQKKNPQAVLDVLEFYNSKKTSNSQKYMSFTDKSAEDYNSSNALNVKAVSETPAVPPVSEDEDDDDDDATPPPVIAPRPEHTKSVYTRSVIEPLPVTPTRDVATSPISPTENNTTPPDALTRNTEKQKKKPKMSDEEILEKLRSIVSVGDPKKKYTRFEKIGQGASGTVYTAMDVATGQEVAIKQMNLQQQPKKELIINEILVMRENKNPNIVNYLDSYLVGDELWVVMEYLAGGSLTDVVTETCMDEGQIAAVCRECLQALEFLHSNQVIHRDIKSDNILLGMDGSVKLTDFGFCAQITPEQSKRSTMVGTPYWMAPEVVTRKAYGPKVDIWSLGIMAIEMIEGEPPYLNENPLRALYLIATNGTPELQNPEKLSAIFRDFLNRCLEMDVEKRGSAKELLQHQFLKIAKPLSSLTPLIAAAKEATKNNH
Chain of Rho-associated protein kinase 2 (Homo sapiens) (O75116 whole entry, looked up): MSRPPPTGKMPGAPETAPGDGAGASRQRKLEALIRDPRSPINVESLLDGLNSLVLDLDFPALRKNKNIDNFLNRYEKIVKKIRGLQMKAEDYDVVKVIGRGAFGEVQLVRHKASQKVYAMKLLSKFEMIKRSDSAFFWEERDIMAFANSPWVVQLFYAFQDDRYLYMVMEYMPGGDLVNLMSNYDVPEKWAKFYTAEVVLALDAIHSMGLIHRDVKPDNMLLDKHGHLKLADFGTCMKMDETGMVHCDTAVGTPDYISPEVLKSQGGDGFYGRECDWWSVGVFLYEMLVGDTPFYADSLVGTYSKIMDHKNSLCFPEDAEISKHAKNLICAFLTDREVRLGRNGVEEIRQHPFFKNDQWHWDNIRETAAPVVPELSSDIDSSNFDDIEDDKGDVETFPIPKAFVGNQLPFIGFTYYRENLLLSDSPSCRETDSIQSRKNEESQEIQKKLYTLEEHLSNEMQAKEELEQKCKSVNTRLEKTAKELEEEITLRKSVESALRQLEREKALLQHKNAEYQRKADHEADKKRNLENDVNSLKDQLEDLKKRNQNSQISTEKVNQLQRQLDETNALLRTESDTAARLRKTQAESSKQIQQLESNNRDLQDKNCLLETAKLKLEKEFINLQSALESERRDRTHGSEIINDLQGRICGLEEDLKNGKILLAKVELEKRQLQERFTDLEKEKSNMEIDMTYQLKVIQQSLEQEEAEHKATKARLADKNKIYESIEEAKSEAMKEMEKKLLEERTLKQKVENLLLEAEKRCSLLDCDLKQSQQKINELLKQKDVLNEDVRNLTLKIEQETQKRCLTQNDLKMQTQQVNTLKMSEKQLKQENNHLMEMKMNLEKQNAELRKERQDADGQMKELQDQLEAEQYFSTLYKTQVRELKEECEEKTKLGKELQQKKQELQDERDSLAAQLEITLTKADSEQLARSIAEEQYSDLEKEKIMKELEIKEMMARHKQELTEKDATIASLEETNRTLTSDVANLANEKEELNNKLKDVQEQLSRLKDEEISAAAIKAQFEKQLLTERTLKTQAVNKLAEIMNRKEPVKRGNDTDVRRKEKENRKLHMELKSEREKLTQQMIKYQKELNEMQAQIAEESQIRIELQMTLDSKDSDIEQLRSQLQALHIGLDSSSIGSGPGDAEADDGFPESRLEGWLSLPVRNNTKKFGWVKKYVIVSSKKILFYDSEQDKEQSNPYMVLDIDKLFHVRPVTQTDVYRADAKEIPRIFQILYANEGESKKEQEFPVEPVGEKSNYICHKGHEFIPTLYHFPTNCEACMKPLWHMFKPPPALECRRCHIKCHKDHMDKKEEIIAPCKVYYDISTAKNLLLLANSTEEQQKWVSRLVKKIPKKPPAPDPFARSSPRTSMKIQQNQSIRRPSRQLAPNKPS
Chain of Tyrosine-protein kinase Lck (Homo sapiens) (P06239 2-509 limits assumed): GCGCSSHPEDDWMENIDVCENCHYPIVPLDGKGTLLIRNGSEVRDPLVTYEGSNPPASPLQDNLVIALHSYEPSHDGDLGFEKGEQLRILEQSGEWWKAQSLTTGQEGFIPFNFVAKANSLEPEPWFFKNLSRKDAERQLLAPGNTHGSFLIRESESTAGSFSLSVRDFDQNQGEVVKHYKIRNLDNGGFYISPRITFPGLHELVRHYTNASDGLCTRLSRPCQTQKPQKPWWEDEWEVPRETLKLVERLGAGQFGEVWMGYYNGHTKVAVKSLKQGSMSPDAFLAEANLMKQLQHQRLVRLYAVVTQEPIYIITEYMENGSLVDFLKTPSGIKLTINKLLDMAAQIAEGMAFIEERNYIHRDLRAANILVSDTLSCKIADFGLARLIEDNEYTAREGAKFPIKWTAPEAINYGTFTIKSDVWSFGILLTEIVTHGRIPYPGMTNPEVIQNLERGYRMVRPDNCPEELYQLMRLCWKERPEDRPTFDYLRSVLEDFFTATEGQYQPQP
Chain of Serine/threonine-protein kinase PAK 4 (Homo sapiens) (O96013 whole entry, looked up): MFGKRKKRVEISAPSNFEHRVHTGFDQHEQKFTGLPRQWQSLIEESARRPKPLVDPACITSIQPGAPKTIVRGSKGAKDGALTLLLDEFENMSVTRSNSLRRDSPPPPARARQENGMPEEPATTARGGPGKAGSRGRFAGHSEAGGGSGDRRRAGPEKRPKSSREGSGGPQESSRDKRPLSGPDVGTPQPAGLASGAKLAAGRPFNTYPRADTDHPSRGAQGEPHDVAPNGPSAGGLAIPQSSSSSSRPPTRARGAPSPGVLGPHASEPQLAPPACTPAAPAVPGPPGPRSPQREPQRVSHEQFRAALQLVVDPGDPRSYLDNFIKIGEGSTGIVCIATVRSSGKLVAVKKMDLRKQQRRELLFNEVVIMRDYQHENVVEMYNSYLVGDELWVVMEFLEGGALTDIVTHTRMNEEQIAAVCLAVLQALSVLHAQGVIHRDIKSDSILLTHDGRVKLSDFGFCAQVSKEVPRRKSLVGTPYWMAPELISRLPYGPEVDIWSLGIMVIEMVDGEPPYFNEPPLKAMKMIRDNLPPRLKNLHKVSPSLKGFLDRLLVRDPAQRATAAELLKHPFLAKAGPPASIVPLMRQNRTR
T1 sequence (P53667 whole entry, the tested form may be a part): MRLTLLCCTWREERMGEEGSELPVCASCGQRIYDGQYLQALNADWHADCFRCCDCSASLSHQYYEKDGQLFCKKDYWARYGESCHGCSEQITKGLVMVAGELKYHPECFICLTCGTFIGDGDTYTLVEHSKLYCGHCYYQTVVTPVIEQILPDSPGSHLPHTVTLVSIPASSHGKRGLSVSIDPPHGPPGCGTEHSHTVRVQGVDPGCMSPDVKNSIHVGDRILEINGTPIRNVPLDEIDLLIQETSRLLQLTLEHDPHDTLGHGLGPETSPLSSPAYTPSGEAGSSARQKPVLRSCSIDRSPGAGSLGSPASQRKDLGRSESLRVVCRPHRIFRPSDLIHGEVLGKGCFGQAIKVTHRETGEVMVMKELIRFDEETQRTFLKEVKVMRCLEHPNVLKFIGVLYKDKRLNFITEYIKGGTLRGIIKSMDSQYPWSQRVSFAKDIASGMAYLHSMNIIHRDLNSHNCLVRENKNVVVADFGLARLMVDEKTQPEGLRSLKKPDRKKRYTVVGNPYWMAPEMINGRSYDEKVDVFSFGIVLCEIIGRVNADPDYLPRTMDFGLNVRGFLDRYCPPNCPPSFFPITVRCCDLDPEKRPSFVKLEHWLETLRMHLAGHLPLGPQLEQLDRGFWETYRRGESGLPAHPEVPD
Chain of hERG (KCNH2) (Q12809 whole entry): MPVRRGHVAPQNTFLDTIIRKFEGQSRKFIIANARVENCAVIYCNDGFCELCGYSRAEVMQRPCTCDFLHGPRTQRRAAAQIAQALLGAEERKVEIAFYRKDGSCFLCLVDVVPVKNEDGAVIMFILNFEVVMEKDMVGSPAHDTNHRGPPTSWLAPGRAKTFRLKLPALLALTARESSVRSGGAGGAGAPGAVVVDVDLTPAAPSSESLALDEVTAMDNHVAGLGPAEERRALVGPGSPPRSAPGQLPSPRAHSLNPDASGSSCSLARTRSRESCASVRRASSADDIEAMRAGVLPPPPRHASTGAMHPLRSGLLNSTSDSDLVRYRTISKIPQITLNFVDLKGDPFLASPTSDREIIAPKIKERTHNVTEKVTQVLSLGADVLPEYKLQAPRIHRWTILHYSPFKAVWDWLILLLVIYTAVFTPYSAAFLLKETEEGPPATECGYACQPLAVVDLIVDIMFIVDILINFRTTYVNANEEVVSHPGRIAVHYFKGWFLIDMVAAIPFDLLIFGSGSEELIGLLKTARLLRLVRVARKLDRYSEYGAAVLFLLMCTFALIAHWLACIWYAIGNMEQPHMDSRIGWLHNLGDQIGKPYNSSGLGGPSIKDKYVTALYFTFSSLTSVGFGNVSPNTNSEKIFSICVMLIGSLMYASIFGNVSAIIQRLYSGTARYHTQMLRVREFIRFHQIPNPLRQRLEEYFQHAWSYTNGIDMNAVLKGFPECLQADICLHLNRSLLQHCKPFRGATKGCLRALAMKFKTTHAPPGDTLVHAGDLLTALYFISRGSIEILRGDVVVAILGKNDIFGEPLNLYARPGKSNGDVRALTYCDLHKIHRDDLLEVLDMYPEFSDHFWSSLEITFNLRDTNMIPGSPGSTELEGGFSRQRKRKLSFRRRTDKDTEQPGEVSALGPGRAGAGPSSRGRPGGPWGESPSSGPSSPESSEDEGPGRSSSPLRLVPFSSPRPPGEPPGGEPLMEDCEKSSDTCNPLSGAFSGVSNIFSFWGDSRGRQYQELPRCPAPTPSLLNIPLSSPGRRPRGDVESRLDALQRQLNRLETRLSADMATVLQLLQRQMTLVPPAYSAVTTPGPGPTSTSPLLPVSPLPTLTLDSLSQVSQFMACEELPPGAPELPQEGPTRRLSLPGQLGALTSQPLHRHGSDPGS

IC50 [1] [nM]	solubility kinetic [2] [µg/mL]	solubility kinetic [3] [µg/mL]	logD [4]	microsomal CLint at 1 µM [5] [µL/min/mg]	microsomal CLint at 1 µM [6] [µL/min/mg]	fraction unbound [7]	IC50 [8] [nM]	IC50 [9] [nM]	inhibition at 20 µM [10] [%]	inhibition at 20 µM [11] [%]	inhibition [13] [%]	inhibition [14] [%]	inhibition [15] [%]	inhibition [16] [%]	inhibition [17] [%]	inhibition [18] [%]	inhibition [19] [%]	inhibition [20] [%]	SMILES	inhibition at 10 µM [12] [%]	also measured
97	< 1.6	50 (≈ 118 µM)	2.7	111	116	0.014	4100	133	99	13	31	98	60	85	23	13	8	13	Nc1ncnc2c1sc1cc(-c3cccc(C(=O)NCCc4cccnc4)c3)ccc12	11	inhibition at 20 µM [21]: 74%
95	3.1 (≈ 7.96 µM)	50 (≈ 128 µM)	2.8	56	77	–	2400	103	82	28	13	95	56	71	60	7	0	10	Nc1ncnc2c1sc1cc(-c3cccc(NC(=O)N4CCCC4)c3)ccc12	0	inhibition at 20 µM [21]: 9%
81	6.3 (≈ 14.1 µM)	50 (≈ 112 µM)	2.1	< 6	68	0.053	1400	–	70	17	31	97	65	97	45	0	23	18	Nc1ncnc2c1sc1cc(-c3cccc(C(=O)NCC(=O)N4CCOCC4)c3)ccc12	0	–
95	12.5 (≈ 29.9 µM)	> 100	2.5	27	165	0.037	1600	157	82	11	25	88	53	75	71	0	33	24	CN1CCN(C(=O)Nc2cccc(-c3ccc4c(c3)sc3c(N)ncnc34)c2)CC1	27	inhibition at 20 µM [21]: 12%

Source: ChEMBL document CHEMBL3390844, “Development of substituted 7-phenyl-4-aminobenzothieno[3,2-d] pyrimidines as potent LIMK1 inhibitors” (Medchemcomm, 2011)
